From patent US5292733A, “Cephalosporin compounds” (Lucky Limited, priority 1991, dated 1994)
Values after ≈ are worked out from the molar mass of the structure shown.

Columns and labels:
Test in all cases: Antibacterial activity MIC, two-fold agar dilution
Format in all cases: cell-based
[1] = system: Shigella sonnei ATCC 11060; details: ATCC11060, Muller-Hinton agar, 37° C., 20 hours
Method in brief: (§1)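 MIC by two-fold agar dilution: Muller-Hinton agar; inoculum 2 μl of 10^7 CFU/ml culture; 37° C., 20 h.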

[2] = system: Morganella morganii ATCC 8076h; details: ATCC8076H, Muller-Hinton agar, 37° C., 20 hours
Method in brief: as §1

[3] = system: Staphylococcus epidermidis ATCC 12228; details: ATCC12228; Staphylococcus epidermidis ATCC 12228; Muller-Hinton agar, 37° C., 20 hours; read-out: Antibacterial Activity MIC
Method in brief: as §1

[4] = system: Micrococcus luteus ATCC 9341; details: ATCC9341; Micrococcus luteus ATCC 9341; Muller-Hinton agar, 37° C., 20 hours; read-out: Antibacterial Activity MIC
Method in brief: as §1

[5] = system: Staphylococcus aureus ATCC 10537; details: ATCC10537; Staphylococcus aureus ATCC 10537; Muller-Hinton agar, 37° C., 20 hours; read-out: Antibacterial Activity MIC
Method in brief: as §1

[6] = system: Acinetobacter calcoaceticus ATCC 15473; details: ATCC15473; Acinetobacter calcoaceticus ATCC 15473; Muller-Hinton agar, 37° C., 20 hours; read-out: Antibacterial Activity MIC
Method in brief: as §1

[7] = system: Enterobacter cloacae ATCC 27508; details: ATCC27508; Enterobacter cloacae ATCC 27508; Muller-Hinton agar, 37° C., 20 hours; read-out: Antibacterial Activity MIC
Method in brief: as §1

[8] = system: Bacillus cereus ATCC 11778; details: ATCC11778; Bacillus cereus ATCC 11778; Muller-Hinton agar, 37° C., 20 hours; read-out: Antibacterial Activity MIC
Method in brief: as §1

[9] = system: Proteus mirabilis ATCC 25933; details: ATCC25933; Proteus mirabilis ATCC 25933; Muller-Hinton agar, 37° C., 20 hours; read-out: Antibacterial Activity MIC
Method in brief: as §1

[10] = system: Pseudomonas aeruginosa ATCC 27853; details: ATCC27853; Pseudomonas aeruginosa ATCC 27853; Muller-Hinton agar, 37° C., 20 hours; read-out: Antibacterial Activity MIC
Method in brief: as §1

[11] = system: Serratia marcescens ATCC 27117; details: ATCC27117; Serratia marcescens ATCC 27117; Muller-Hinton agar, 37° C., 20 hours; read-out: Antibacterial Activity MIC
Method in brief: as §1

[12] = system: Streptococcus faecalis ATCC 29212; details: Enterococcus faecalis, ATCC29212; Streptococcus faecalis ATCC 29212; Muller-Hinton agar, 37° C., 20 hours; read-out: Antibacterial Activity MIC
Method in brief: as §1

[13] = system: Pseudomonas aeruginosa ATCC 10145; details: ATCC10145; Pseudomonas aeruginosa ATCC 10145; Muller-Hinton agar, 37° C., 20 hours; read-out: Antibacterial Activity MIC
Method in brief: as §1

[14] = system: Pseudomonas aeruginosa ATCC 25619; details: ATCC25619; Pseudomonas aeruginosa ATCC 25619; Muller-Hinton agar, 37° C., 20 hours; read-out: Antibacterial Activity MIC
Method in brief: as §1

[15] = system: Shigella flexneri ATCC 11836; details: ATCC11836, Muller-Hinton agar, 37° C., 20 hours
Method in brief: as §1

[16] = system: Bacillus megaterium ATCC 9885; details: Priestia megaterium, ATCC9885; Bacillus megaterium ATCC 9885; Muller-Hinton agar, 37° C., 20 hours; read-out: Antibacterial Activity MIC
Method in brief: as §1

[17] = system: Providencia rettgeri ATCC 9250; details: ATCC9250, Muller-Hinton agar, 37° C., 20 hours
Method in brief: as §1

[18] = system: Salmonella typhimurium ATCC 14028; details: Salmonella enterica; Salmonella typhimurium ATCC 14028; Muller-Hinton agar, 37° C., 20 hours; read-out: Antibacterial Activity MIC
Method in brief: as §1

[19] = system: Proteus vulgaris ATCC 6059; details: ATCC6059; Proteus vulgaris ATCC 6059; Muller-Hinton agar, 37° C., 20 hours; read-out: Antibacterial Activity MIC
Method in brief: as §1

[20] = system: Escherichia coli ATCC 25922; details: ATCC25922, Muller-Hinton agar, 37° C., 20 hours
Method in brief: as §1

[21] = system: Klebsiella pneumoniae ATCC 10031; details: ATCC10031; Klebsiella pneumoniae ATCC 10031; Muller-Hinton agar, 37° C., 20 hours; read-out: Antibacterial Activity MIC
Method in brief: as §1

[22] = system: Enterobacter aerogenes ATCC 29751; details: Klebsiella aerogenes, ATCC29751; Enterobacter aerogenes ATCC 29751; Muller-Hinton agar, 37° C., 20 hours; read-out: Antibacterial Activity MIC
Method in brief: as §1

[23] = system: Escherichia coli ATCC 10536; details: ATCC10536, Muller-Hinton agar, 37° C., 20 hours
Method in brief: as §1

[24] = system: Staphylococcus aureus ATCC 6538p; details: ATCC6538P; Staphylococcus aureus ATCC 6538p; Muller-Hinton agar, 37° C., 20 hours; read-out: Antibacterial Activity MIC
Method in brief: as §1

[25] = system: Citrobacter freundii ATCC 8090; details: ATCC8090; Citrobacter freundii ATCC 8090; Muller-Hinton agar, 37° C., 20 hours; read-out: Antibacterial Activity MIC
Method in brief: as §1

SMILES	MIC [1] [µg/mL]	MIC [2] [µg/mL]	MIC [3] [µg/mL]	MIC [4] [µg/mL]	MIC [5] [µg/mL]	MIC [6] [µg/mL]	MIC [7] [µg/mL]	MIC [8] [µg/mL]	MIC [9] [µg/mL]	MIC [10] [µg/mL]	MIC [11] [µg/mL]	MIC [12] [µg/mL]	MIC [13] [µg/mL]	MIC [14] [µg/mL]	MIC [15] [µg/mL]	MIC [16] [µg/mL]	MIC [17] [µg/mL]	MIC [18] [µg/mL]	MIC [19] [µg/mL]	MIC [20] [µg/mL]	also measured
CCO/N=C(\C(=O)N[C@@H]1C(=O)N2C(C(=O)[O-])=C(CSc3cc(N)[n+](C)c(N)n3)CS[C@H]12)c1nsc(N)n1 [Compound I-10, (6R,7R)-7-[(Z)-2-(5-amino-1,2,4-thiadiazol-3-yl)-2-(ethoxyimino)acetamido]-3-(2,6-diamino-1-methylpyrimidinium-4-yl)thiomethyl-3-cephem-4-carboxylate]	0.25 (≈ 0.441 µM)	0.016 (≈ 0.0282 µM)	0.25 (≈ 0.441 µM)	0.016 (≈ 0.0282 µM)	0.5 (≈ 0.882 µM)	4 (≈ 7.06 µM)	0.016 (≈ 0.0282 µM)	128 (≈ 226 µM)	0.25 (≈ 0.441 µM)	1 (≈ 1.76 µM)	0.13 (≈ 0.229 µM)	8 (≈ 14.1 µM)	1 (≈ 1.76 µM)	0.5 (≈ 0.882 µM)	0.031 (≈ 0.0547 µM)	0.13 (≈ 0.229 µM)	≤ 0.008	0.063 (≈ 0.111 µM)	0.25 (≈ 0.441 µM)	0.25 (≈ 0.441 µM)	MIC [21]: ≤ 0.008 µg/mL; MIC [22]: 0.25 µg/mL (≈ 0.441 µM); MIC [23]: 0.13 µg/mL (≈ 0.229 µM); MIC [24]: 0.5 µg/mL (≈ 0.882 µM); MIC [25]: 0.13 µg/mL (≈ 0.229 µM)
C[n+]1c(N)nc(N)nc1SCC1=C(C(=O)[O-])N2C(=O)C(NC(=O)/C(=N\OC(C)(C)C(=O)O)c3csc(N)n3)[C@H]2SC1 (stereo partly shown) [Compound I-23, 7-[(Z)-2-(2-aminothiazol-4-yl)-2-(2-carboxyprop-2-oxyimino)acetamido]-3-(4,6-diamino-1-methyl-1,3,5-triazinium-2-yl)thiomethyl-3-cephem-4-carboxylate]	0.063 (≈ 0.101 µM)	≤ 0.008	2 (≈ 3.2 µM)	1 (≈ 1.6 µM)	2 (≈ 3.2 µM)	4 (≈ 6.4 µM)	0.031 (≈ 0.0496 µM)	128 (≈ 205 µM)	0.063 (≈ 0.101 µM)	1 (≈ 1.6 µM)	0.13 (≈ 0.208 µM)	> 128	2 (≈ 3.2 µM)	1 (≈ 1.6 µM)	0.063 (≈ 0.101 µM)	0.5 (≈ 0.8 µM)	≤ 0.008	0.13 (≈ 0.208 µM)	0.063 (≈ 0.101 µM)	0.063 (≈ 0.101 µM)	MIC [21]: 0.063 µg/mL (≈ 0.101 µM); MIC [22]: 2 µg/mL (≈ 3.2 µM); MIC [23]: 0.063 µg/mL (≈ 0.101 µM); MIC [24]: 8 µg/mL (≈ 12.8 µM); MIC [25]: 0.13 µg/mL (≈ 0.208 µM)
C#CCO/N=C(\C(=O)N[C@@H]1C(=O)N2C(C(=O)[O-])=C(CSc3cc(N)[n+](CC)c(N)n3)CS[C@H]12)c1csc(N)n1 [Compound I-15, (6R,7R)-7-[(Z)-2-(2-aminothiazol-4-yl)-2-(2-propyn-1-oxyimino)acetamido]-3-(2,6-diamino-1-ethylpyrimidinium-4-yl)thiomethyl-3-cephem-4-carboxylate]	0.5 (≈ 0.848 µM)	0.016 (≈ 0.0271 µM)	0.25 (≈ 0.424 µM)	0.031 (≈ 0.0526 µM)	0.5 (≈ 0.848 µM)	8 (≈ 13.6 µM)	0.031 (≈ 0.0526 µM)	32 (≈ 54.3 µM)	0.5 (≈ 0.848 µM)	4 (≈ 6.78 µM)	0.5 (≈ 0.848 µM)	16 (≈ 27.1 µM)	8 (≈ 13.6 µM)	1 (≈ 1.7 µM)	0.13 (≈ 0.22 µM)	0.25 (≈ 0.424 µM)	≤ 0.008	0.5 (≈ 0.848 µM)	1 (≈ 1.7 µM)	0.5 (≈ 0.848 µM)	MIC [21]: 0.016 µg/mL (≈ 0.0271 µM); MIC [22]: 1 µg/mL (≈ 1.7 µM); MIC [23]: 0.25 µg/mL (≈ 0.424 µM); MIC [24]: 0.5 µg/mL (≈ 0.848 µM); MIC [25]: 0.25 µg/mL (≈ 0.424 µM)
C#CCO/N=C(\C(=O)N[C@@H]1C(=O)N2C(C(=O)[O-])=C(CSc3cc(N)[n+](C)c(N)n3)CS[C@H]12)c1csc(N)n1 [Compound I-14, (6R,7R)-7-[(Z)-2-(2-aminothiazol-4-yl)-2-(2-propyn-1-oxyimino)acetamido]-3-(2,6-diamino-1-methylpyrimidinium-4-yl)thiomethyl-3-cephem-4-carboxylate]	0.5 (≈ 0.869 µM)	0.016 (≈ 0.0278 µM)	0.25 (≈ 0.434 µM)	0.031 (≈ 0.0539 µM)	0.5 (≈ 0.869 µM)	8 (≈ 13.9 µM)	0.016 (≈ 0.0278 µM)	64 (≈ 111 µM)	1 (≈ 1.74 µM)	4 (≈ 6.95 µM)	0.5 (≈ 0.869 µM)	16 (≈ 27.8 µM)	8 (≈ 13.9 µM)	1 (≈ 1.74 µM)	0.063 (≈ 0.109 µM)	0.25 (≈ 0.434 µM)	≤ 0.008	0.25 (≈ 0.434 µM)	1 (≈ 1.74 µM)	0.25 (≈ 0.434 µM)	MIC [21]: 0.016 µg/mL (≈ 0.0278 µM); MIC [22]: 0.5 µg/mL (≈ 0.869 µM); MIC [23]: 0.5 µg/mL (≈ 0.869 µM); MIC [24]: 0.5 µg/mL (≈ 0.869 µM); MIC [25]: 0.25 µg/mL (≈ 0.434 µM)
